Results taken from ChEMBL document CHEMBL1125176, “Synthesis of structural analogues of lyngbyatoxin A and their evaluation as activators of protein kinase C” (J Med Chem, 1991).

Biological target: Protein kinase C (PKC) (Homo sapiens) (UniProt O94806+P41743+P17252+P05129+Q05655+P05771+Q05513+Q02156+P24723+Q15139+Q04759)
Test: Activation of partially purified HeLa cell protein kinase C, 32P incorporation into calf thymus histone(III-S).

Row | Structure (SMILES) | Activity (pM min-1 (mg of protein)-1)
1 | CCCCCCc1ccc2c3c(c[nH]c13)C[C@@H](CO)NC(=O)[C@H](C(C)C)N2C | 606
2 | CC(C)=CCCCc1ccc2c3c(c[nH]c13)C[C@H](CO)NC(=O)[C@H](C(C)C)N2C | 415
3 | CC(C)[C@H]1C(=O)N[C@H](CO)Cc2c[nH]c3cccc(c23)N1C | 454
4 | CC(C)[C@H]1C(=O)N[C@@H](CO)Cc2c[nH]c3c(CCCCO)ccc(c23)N1C | 163
5 | CCCCCCCCCCCCCC(=O)O[C@@H]1[C@@H](C)[C@@]2(O)[C@@H](C=C(CO)C[C@]3(O)C(=O)C(C)=C[C@@H]23)[C@@H]2C(C)(C)[C@]12OC(C)=O | 899
6 | CC(C)[C@H]1C(=O)N[C@H](CO)Cc2c[nH]c3c(CCCCO)ccc(c23)N1C | 256
7 | CC(C)=CCCCc1ccc2c3c(c[nH]c13)C[C@@H](CO)NC(=O)[C@H](C(C)C)N2C | 763
8 | CC(C)[C@H]1C(=O)N[C@H](CO)Cc2c[nH]c3c(CCCCO[Si](C)(C)C(C)(C)C)ccc(c23)N1C | 703
9 | CC(C)[C@H]1C(=O)N[C@@H](CO)Cc2c[nH]c3c(CCCCO[Si](C)(C)C(C)(C)C)ccc(c23)N1C | 403
